Tests used:
IgG and IgM = test: Serum IgG and IgM by single radial immunodiffusion, dogs; assay type: in vivo, Beagle dogs
Method: Serum collected on weeks 0, 2, 4, 8 and 12 were analyzed for IgG and IgM concentrations by single radial immunodiffusion (SRID). In addition, all dogs were vaccinated with the polyvalent vaccine (Vanguard 5, Smithkline Beacham, West Chester, Pa.) on week 13 and again on week 15 to study the possible anamnestic effect of dietary lutein. Blood was collected weekly from week 13 through week 17. Goat antiserum to canine IgG (10%, whole molecule) or IgM (7.5%, μ chain specific) (ICN, Aurora, Ohio) was mixed with melted agarose (10 g/L in PBS; Sigma Chem. Co., St. Louis, Mo.) and the mixture solidified in SRID plates.
Duplicate 5 μL volumes of serum or IgG (0, 2.88, 5.75, 11.5 and 23.0 mg/ml) or IgM (0, 0.25, 0.5, 1.0 and 2.0 mg/ml) standard were loaded into the wells. After incubating for 24 hours at room temperature in a humidified chamber, ring diameters were measured using a SRID reader (Transidyne General Corp., Ann Arbor, Mich.).

[1] = system: lymphocyte subsets (CD3, CD4, CD8, MHC class II, CD21); test: Lymphocyte subpopulations by flow cytometry, cats; assay type: in vivo, Tabby cats
Method: Blood leukocytes were separated on Histopaque-1119 (Sigma, St. Louis, Mo.) and cells washed three times with phosphate-buffered saline (PBS, pH 7.4). Contaminating RBC were lysed with NH4Cl (8.4 g/L) and cell viability determined by trypan blue exclusion. Lymphocyte subsets were determined by FACScan flow cytometry (Becton Dickinson, San Jose, Calif.) immediately after cell preparation. Isolated PBMC were resuspended to 1×10^7 cells/mL phosphate buffered saline (PBS) supplemented with 2% gamma globulin-free serum, 5% goat serum and 0.2 g/L sodium azide (Baker, Phillipsburg, N.J.). For immunofluorescence analysis, 5×10^5 cells were incubated for 30 minutes on ice with a previously determined optimal concentration of mouse anti-cat primary monoclonal antibody. The antibodies were specific for the following lymphocyte subsets: total T cells (anti-CD3), T-helper cells (anti-CD4), T cytotoxic/suppressor cells (anti-CD8), lymphocytes expressing major histocompatibility complex (MHC) class II antigens (anti-MHC class II), and B cells (anti-CD21). Cells were then washed three times and incubated with a secondary antibody, fluorescein isothiocyanate (FITC)-conjugated goat F(ab′)2 anti-mouse IgG (H+L) (Caltag, Burlingame, Calif.) for 30 minutes on ice to visualize the bound antibody. Stained cells were fixed in 4% paraformaldehyde in preparation for acquisition. Appropriate negative controls were included to correct the level of background fluorescence. Fluorescence analysis was performed on lymphocytes gated by forward and side scatter. Data were expressed as a percentage of positive-staining cells corrected for cells stained nonspecifically with the secondary antibody.

malondialdehyde = test: Lipid peroxidation (TBARS), cat plasma; assay type: in vivo, Tabby cats; conditions: cats
Method: Lipid peroxidation was assessed by the TBARS (thiobarbituric acid-reactive substances) assay on plasma collected on weeks 0, 2, 4, 8 and 12. Duplicate 500 μL of cat plasma was boiled for 45 minutes with 3 mL of phosphoric acid (10 g/L) and 1 mL of TBA (6 g/L). After cooling, the TBA-MDA (malondialdehyde) complex was extracted with 4 mL of n-butanol. The butanol layer was separated by centrifugation (1,000×g for 10 minutes) and absorbance read (Beckman, Fullerton, Calif.) at 532 nm. […] Louis, Mo.).

[2] = Body weight and food intake of cats fed lutein; assay type: in vivo, Tabby cats
Method: Fifty-six female Tabby cats (10 months old) were randomly assigned to be fed 0, 1, 5, or 10 mg lutein daily for 12 weeks. The lutein contained 76.66% lutein and 5.23% zeaxanthin and was incorporated into the basal diet (see Table 3) to a final concentration of 250 mg lutein/kg of diet.
Prior to being fed to the cats, the lutein-containing diet was mixed with additional basal diet to achieve the desired lutein concentration. The final diets were mixed weekly and stored at −20° C. in sealed containers undernitrogen gas. […] Food and water were available ad libitum. Cats were housed (7 cats/pen; 1.5×5.0 m) in a temperature (20 to 22° C.) and light (14 h light) controlled facility.

[3] = system: peripheral blood mononuclear cells (PBMC); test: Mitogen-induced lymphocyte proliferation by PBMC, whole blood culture, dogs; assay type: in vivo, Beagle dogs
Method: Blood collected on weeks 0, 2, 4, 8 and 12 were used to assess mitogen-induced lymphocyte proliferation by peripheral blood mononuclear cells (PBMC). Whole blood culture was used in order to mimic in vivo conditions. Mitogens used were phytohemagglutinin (PHA), concanavalin A (Con A) and pokeweed mitogen (PWM). Whole blood was thoroughly mixed and then diluted 1:12 with RPMI-1640 containing 25 mM of Hepes, penicillin (100 U/mL) and streptomycin (100 μg/mL) (Sigma, St. Louis, Mo.). […] Triplicate 150 μL volumes were pipetted into 96-well round bottom plates and 50 μl of the appropriate mitogens added. The final concentrations of the mitogens in culture were 2 and 10 μg/mL for PHA, 1 and 5 μg/mL for Con A and 0.5 and 2.5 μg/mL for PWM. The two mitogen concentrations gave maximum (the higher mitogen concentration) and suboptimal (lower mitogen concentration) proliferative responses in preliminary studies using blood from similar animals. The mixture was incubated for 72 h at 37° C. in a humidified incubator under a 5% CO2 atmosphere. Four hours prior to the termination of the incubation period, 20 μL of [^3H]-thymidine (1 [μCi/well) were added. Cells were harvested onto fiberglass filters and radioactivity was counted by liquid scintillation. Proliferation response of PBMC was expressed as stimulation index (cpm of stimulated cultures/cpm of unstimulated cultures).

IL-2 = IL-2 production by PHA-stimulated whole blood cultures, dogs; assay type: in vivo, Beagle dogs
Method: Whole blood was diluted 1:2 with RPMI-1640 supplemented with Hepes and antibiotics (described earlier) and 400 μL of diluted blood were pipetted into 48-well plates (Costar, Cambridge, Mass.). Cells were stimulated with PHA (400 μL of a 5 μg/mL solution) for 48 hours at […] in a 5% CO2 atmosphere. The plates were centrifuged at 200×g for 10 minutes and the supernatant was frozen at −80° C. The IL-2 content of the culture supernatant was determined in triplicate by ELISA (Intergen, Purchase, N.Y.). The polyclonal anti-human IL-2 cross-reacted with canine IL-2 and recombinant human IL-2 was used as the standard.

## CC1=C[C@H](O)CC(C)(C)[C@H]1/C=C/C(C)=C/C=C/C(C)=C/C=C/C=C(C)/C=C/C=C(C)/C=C/C1=C(C)C[C@@H](O)CC1(C)C [lutein]
IgG and IgM; dogs fed 5 mg lutein, week 16, after revaccination on week 15, P<0.05
  Plasma IgG: higher
IgG and IgM; dogs fed 20 mg lutein, week 17, after revaccination on week 15
  Plasma IgG: higher
IgG and IgM; dogs, after revaccination
  Concentration of plasma IgM: not changed
[1]; cats
  Total number of T cells (CD3): did not influence significantly
[1]; cats fed 10 mg lutein, week 12
  Percentage of CD21+ B cells: significantly elevated
[1]; cats, any of the time periods
  Percentage of CD8+ T cytotoxic cells: not influenced significantly
  Percentage of MHC class II+ cells: not influenced significantly
  Ratio of CD4:CD8: not influenced significantly
malondialdehyde
  Effect on plasma TBARS activity: did not significantly influence
malondialdehyde; across all diet groups and periods
  Plasma TBARS, average: 20.3±0.2 nmol MDA/L
[2]
  Food intake among treatments: not significantly different
[2]; across all diets and periods
  Body weight average: 1.41 ± 0.04 kg
[2]; across the study period
  Average daily food intake: 83.2 g
[2]; during the experimental period
  Effect on changes in body weight: did not significantly affect
[3]; dogs
  Spontaneous proliferation by unstimulated PBMC: did not significantly influence
[3]; dogs fed 10 mg lutein, week 8
  PWM-stimulated PBMC proliferative response: higher
[3]; dogs fed 10 mg lutein, weeks 8 and 12, 5 μg/mL Con A
  Con A-stimulated PBMC proliferation: higher
[3]; dogs fed 20 mg lutein, week 8, P<0.01
  PHA-stimulated PBMC proliferative response vs unsupplemented: enhanced
[3]; dogs fed 20 mg lutein, week 8 and 12, both concentrations of PWM
  PWM-stimulated PBMC proliferation vs unsupplemented controls: significantly higher
[3]; dogs fed 20 mg lutein, week 12, 2 and 10 μg/mL PHA, P<0.01
  PHA-stimulated PBMC proliferative response vs unsupplemented: enhanced
[3]; dogs fed 20 mg lutein, weeks 8 and 12, both concentrations of Con A
  Con A-stimulated PBMC proliferation: higher
[3]; dogs fed 5 and 10 mg lutein, week 8, 10 μg/ml PHA
  PHA-stimulated PBMC proliferation: higher
[3]; dogs, weeks 0 and 4
  PHA-stimulated PBMC response: no significant effect
  PWM-stimulated PBMC proliferation: no significant treatment difference
IL-2; throughout the experimental period
  Production of IL-2 by PHA-stimulated PBMC among dietary treatments: did not differ significantly
IL-2; throughout the study
  Concentration of IL-2 in culture medium, average: 15.7 ± 0.4 ng/mL

From patent US20010006673A1, “LUTEIN- CONTAINING SUPPLEMENT AND PROCESS FOR ENHANCING IMMUNE RESPONSE IN ANIMALS” (priority 1998, published 2001)
